Test results as given in PubChem BioAssay (NCI).
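Following 48 hours of exposure in 96-well plates, responses at five concentrations were used to interpolate endpoints linearly. At the GI50, growth is halved. At the TGI there is no net growth.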

What was measured:
Assay in all cases: inhibition of tumour cell growth, NCI panel, 48 h
[1] = tested on: HCT-15 colon
[2] = tested on: 786-0 renal
[3] = tested on: UO-31 renal
[4] = tested on: BT-549 breast
[5] = tested on: HOP-92 NSCLC
[6] = tested on: MDA-MB-435
[7] = tested on: HT29 colon
[8] = tested on: UACC-62 melanoma
[9] = tested on: SK-OV-3 ovarian
[10] = tested on: EKVX NSCLC
[11] = tested on: HCT-116 colon
[12] = tested on: NCI/ADR-RES ovarian
[13] = tested on: HS 578T breast
[14] = tested on: NCI-H23 lung
[15] = tested on: SF-295 CNS
[16] = tested on: M14 melanoma
[17] = tested on: SNB-75 CNS
[18] = tested on: OVCAR-5 ovarian
[19] = tested on: U251 CNS
[20] = tested on: KM12 colon
[21] = tested on: SF-539 CNS
[22] = tested on: A498 renal
[23] = tested on: SNB-19 CNS
[24] = tested on: SW-620 colon
[25] = tested on: A549 NSCLC
[26] = tested on: SK-MEL-5 melanoma
[27] = tested on: MOLT-4 leukemia
[28] = tested on: NCI-H522 lung
[29] = tested on: HCC-2998 colon
[30] = tested on: RPMI-8226 leukemia
[31] = tested on: K-562 leukemia
[32] = tested on: OVCAR-8 ovarian
[33] = tested on: RXF 393 renal
[34] = tested on: PC-3 prostate
[35] = tested on: HOP-62 NSCLC
[36] = tested on: MALME-3M melanoma
[37] = tested on: UACC-257 melanoma
[38] = tested on: TK-10 renal
[39] = tested on: SN12C renal
[40] = tested on: MDA-MB-231 breast
[41] = tested on: IGROV1 ovarian
[42] = tested on: OVCAR-3 ovarian
[43] = tested on: NCI-H226 lung
[44] = tested on: HL-60(TB) leukemia
[45] = tested on: NCI-H460 lung
[46] = tested on: SF-268 CNS
[47] = tested on: LOX IMVI melanoma
[48] = tested on: ACHN renal
[49] = tested on: MCF7 breast
[50] = tested on: CCRF-CEM leukemia
[51] = tested on: CAKI-1 renal
[52] = tested on: SK-MEL-2 melanoma
[53] = tested on: DU-145 prostate
[54] = tested on: SR leukemia
[55] = tested on: SK-MEL-28 melanoma
[56] = tested on: OVCAR-4 ovarian
[57] = tested on: T-47D breast
[58] = tested on: COLO 205 colon

COc1ccc(C(=O)N2c3ccccc3Sc3ccccc32)c(OC)c1
GI50 [1]: 0.464 µM
TGI [1]: > 100 µM
GI50 [2]: 0.48 µM
TGI [2]: > 100 µM
GI50 [3]: 0.739 µM
TGI [3]: > 100 µM
GI50 [4]: 0.659 µM
TGI [4]: > 100 µM
GI50 [5]: 0.374 µM
TGI [5]: 97.2 µM
GI50 [6]: 0.212 µM
TGI [6]: 0.953 µM
GI50 [7]: 0.385 µM
TGI [7]: > 100 µM
GI50 [8]: 0.321 µM
TGI [8]: > 100 µM
GI50 [9]: 0.715 µM
TGI [9]: > 100 µM
GI50 [10]: 0.851 µM
TGI [10]: > 100 µM
GI50 [11]: 0.452 µM
TGI [11]: > 100 µM
GI50 [12]: 0.4 µM
TGI [12]: 42.1 µM
GI50 [13]: 0.482 µM
TGI [13]: > 100 µM
GI50 [14]: 0.776 µM
TGI [14]: > 100 µM
GI50 [15]: 0.484 µM
TGI [15]: > 100 µM
GI50 [16]: 0.359 µM
TGI [16]: > 100 µM
GI50 [17]: 0.209 µM
TGI [17]: > 100 µM
GI50 [18]: 10 µM
TGI [18]: > 100 µM
GI50 [19]: 0.615 µM
TGI [19]: > 100 µM
GI50 [20]: 0.438 µM
TGI [20]: > 100 µM
GI50 [21]: 0.333 µM
TGI [21]: 4.37 µM
GI50 [22]: 0.307 µM
TGI [22]: 16.6 µM
GI50 [23]: 0.551 µM
TGI [23]: > 100 µM
GI50 [24]: 0.412 µM
TGI [24]: > 100 µM
GI50 [25]: 0.785 µM
TGI [25]: > 100 µM
GI50 [26]: 0.408 µM
TGI [26]: > 100 µM
GI50 [27]: 0.447 µM
TGI [27]: > 100 µM
GI50 [28]: 0.343 µM
TGI [28]: > 100 µM
GI50 [29]: 1.49 µM
TGI [29]: 8.09 µM
GI50 [30]: 0.523 µM
TGI [30]: 29.9 µM
GI50 [31]: 0.381 µM
TGI [31]: > 100 µM
GI50 [32]: 0.749 µM
TGI [32]: > 100 µM
GI50 [33]: 0.413 µM
TGI [33]: > 100 µM
GI50 [34]: 0.43 µM
TGI [34]: > 100 µM
GI50 [35]: 0.822 µM
TGI [35]: > 100 µM
GI50 [36]: 0.416 µM
TGI [36]: > 100 µM
GI50 [37]: 27.8 µM
TGI [37]: > 100 µM
GI50 [38]: > 100 µM
TGI [38]: > 100 µM
GI50 [39]: 0.586 µM
TGI [39]: > 100 µM
GI50 [40]: 0.83 µM
TGI [40]: > 100 µM
GI50 [41]: 0.926 µM
TGI [41]: > 100 µM
GI50 [42]: 0.322 µM
TGI [42]: 1.14 µM
GI50 [43]: 0.843 µM
TGI [43]: > 100 µM
GI50 [44]: 0.297 µM
TGI [44]: 18.5 µM
GI50 [45]: 0.406 µM
TGI [45]: > 100 µM
GI50 [46]: 0.853 µM
TGI [46]: > 100 µM
GI50 [47]: 0.601 µM
TGI [47]: > 100 µM
GI50 [48]: 0.726 µM
TGI [48]: > 100 µM
GI50 [49]: 0.45 µM
TGI [49]: > 100 µM
GI50 [50]: 0.394 µM
TGI [50]: > 100 µM
GI50 [51]: 0.573 µM
TGI [51]: > 100 µM
GI50 [52]: 0.585 µM
TGI [52]: > 100 µM
GI50 [53]: 0.491 µM
TGI [53]: > 100 µM
GI50 [54]: 0.562 µM
TGI [54]: > 100 µM
GI50 [55]: 0.942 µM
TGI [55]: > 100 µM
GI50 [56]: 3.17 µM
TGI [56]: > 100 µM

COC(=O)c1nc(-c2ccccc2)oc1S(=O)(=O)n1nc(C)cc1N
GI50 [1]: 4.51 µM
TGI [1]: 17.8 µM
GI50 [2]: 12.5 µM
TGI [2]: 25.6 µM
GI50 [3]: 8.59 µM
TGI [3]: 21.1 µM
GI50 [4]: 10.8 µM
TGI [4]: 23.2 µM
GI50 [5]: 1.73 µM
TGI [5]: 3.89 µM
GI50 [6]: 11.4 µM
TGI [6]: 25.3 µM
GI50 [7]: 16.4 µM
TGI [7]: 36.5 µM
GI50 [8]: 13.7 µM
TGI [8]: 28.1 µM
GI50 [9]: 45.5 µM
TGI [9]: > 100 µM
GI50 [10]: 16.7 µM
TGI [10]: 43.9 µM
GI50 [11]: 4.73 µM
TGI [11]: 17.6 µM
GI50 [12]: 22.5 µM
TGI [12]: 57.6 µM
GI50 [57]: 3.84 µM
TGI [57]: 18.3 µM
GI50 [13]: 25.8 µM
TGI [13]: 90.2 µM
GI50 [14]: 16.7 µM
TGI [14]: 35.9 µM
GI50 [15]: 29.7 µM
TGI [15]: > 100 µM
GI50 [16]: 5.66 µM
TGI [16]: 20 µM
GI50 [17]: 13.2 µM
TGI [17]: 26.6 µM
GI50 [18]: 13.8 µM
TGI [18]: 28.8 µM
GI50 [19]: 16.5 µM
TGI [19]: 30.8 µM
GI50 [20]: 16.9 µM
TGI [20]: 32.4 µM
GI50 [21]: 14.4 µM
TGI [21]: 27.7 µM
GI50 [22]: 18.7 µM
TGI [22]: 70.2 µM
GI50 [23]: 15.6 µM
TGI [23]: 34.3 µM
GI50 [24]: 3.22 µM
TGI [24]: 11.2 µM
GI50 [25]: 28.9 µM
TGI [25]: 84 µM
GI50 [26]: 15.5 µM
TGI [26]: 29.7 µM
GI50 [27]: 3.08 µM
TGI [27]: 11.4 µM
GI50 [28]: 2.06 µM
TGI [28]: 4.06 µM
GI50 [29]: 18.2 µM
TGI [29]: 32.2 µM
GI50 [30]: 5.39 µM
TGI [30]: 23.4 µM
GI50 [31]: 2.13 µM
TGI [31]: 6.98 µM
GI50 [32]: 19.7 µM
TGI [32]: 50.3 µM
GI50 [33]: 11.9 µM
TGI [33]: 24.7 µM
GI50 [34]: 18.3 µM
TGI [34]: 33.5 µM
GI50 [35]: 27.9 µM
TGI [35]: 84.2 µM
GI50 [58]: 2.11 µM
TGI [58]: 3.92 µM
GI50 [36]: 1.78 µM
TGI [36]: 4.06 µM
GI50 [37]: 18.6 µM
TGI [37]: 39.7 µM
GI50 [38]: 11.3 µM
TGI [38]: 24.6 µM
GI50 [39]: 5.64 µM
TGI [39]: 19.7 µM
GI50 [40]: 9.03 µM
TGI [40]: 21.8 µM
GI50 [41]: 15.7 µM
TGI [41]: 36.5 µM
GI50 [42]: 2.03 µM
TGI [42]: 3.99 µM
GI50 [43]: 16.5 µM
TGI [43]: 41.1 µM
GI50 [44]: 3.02 µM
TGI [44]: 12.5 µM
GI50 [45]: 17.6 µM
TGI [45]: 36.3 µM
GI50 [46]: 18.9 µM
TGI [46]: 41.3 µM
GI50 [47]: 1.51 µM
TGI [47]: 3.34 µM
GI50 [48]: 1.71 µM
TGI [48]: 3.11 µM
GI50 [49]: 6.95 µM
TGI [49]: 27.5 µM
GI50 [50]: 2.11 µM
TGI [50]: 10.5 µM
GI50 [52]: 13.7 µM
TGI [52]: 30.5 µM
GI50 [53]: 15.9 µM
TGI [53]: 29.3 µM
GI50 [54]: 0.933 µM
TGI [54]: 3.94 µM
GI50 [55]: 14.7 µM
TGI [55]: 29.9 µM
GI50 [56]: 16.2 µM
TGI [56]: 36 µM
